# Molecular target: T1, rhCRTh2 (Homo sapiens, UniProt Q9Y5Y4)
# T1 construct: expressed in transfected cells; host or cells: HEK cells (membrane preparation)
# T1 sequence (Q9Y5Y4 1-395): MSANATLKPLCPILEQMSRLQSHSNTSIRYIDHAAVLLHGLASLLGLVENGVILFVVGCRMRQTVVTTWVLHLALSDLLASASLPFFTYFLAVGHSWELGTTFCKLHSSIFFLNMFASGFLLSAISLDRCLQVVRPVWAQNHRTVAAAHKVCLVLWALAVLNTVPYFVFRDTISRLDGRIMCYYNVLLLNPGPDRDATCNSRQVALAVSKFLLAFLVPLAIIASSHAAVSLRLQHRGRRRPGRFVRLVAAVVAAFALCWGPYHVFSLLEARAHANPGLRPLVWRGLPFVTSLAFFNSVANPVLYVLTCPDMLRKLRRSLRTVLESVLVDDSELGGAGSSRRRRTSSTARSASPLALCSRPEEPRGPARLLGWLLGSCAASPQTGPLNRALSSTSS
# Assay: Ligand Binding Assay ([3H]PGD2 SPA binding)
# Details: [3H]PGD2 binding, membranes of HEK cells expressing rhCRTh2/Gα16, SPA beads, 2 hours room temperature; read-out: pIC50 value (converted)
# Procedure: [^3H]PGD2 was purchased from Perkin Elmer Life Sciences with a specific activity of 100-210 Ci/mmol. All other chemicals were of analytical grade.
# HEK cells expressing rhCRTh2/Gα16 were routinely maintained in DMEM containing 10% Foetal Bovine Serum (HyClone), 1 mg/ml geneticin, 2 mM L-glutamine and 1% non-essential amino acids. For the preparation of membranes, the adherent transfected HEKcells were grown to confluence in two layer tissue culture factories (Fisher, catalogue number TKT-170-070E). Maximal levels of receptor expression were induced by addition of […] sodium butyrate for the last 18 hours of culture. The adherent cells were washed once with phosphate buffered saline (PBS, 50 ml per cell factory) and detached by the addition of 50 ml 0.1 mM dithiothreitol, 1 mM EDTA, 0.1 mM phenyl methyl sulphonyl fluoride and 100 μg/ml bacitracin]. Cells were pelleted by centrifugation at 220×g for 10 minutes at 4° C., re-suspended in half the original volume of fresh membrane homogenisation buffer and disrupted using a Polytron homogeniser for 2×20 second bursts keeping the tube in ice at all times. Unbroken cells were removed by centrifugation at 220×g for 10 minutes at 4° C. and the membrane fraction pelleted by centrifugation at 90000×g for 30 minutes at 4° C. The final pellet was re-suspended in 4 ml of membrane homogenisation buffer per cell factory used and the protein content determined. Membranes were stored at −80° C. in suitable aliquots.
# All assays were performed in Corning clear bottomed, white 96-well NBS plates (Fisher). Prior to assay, the HEK cells membranes containing CRTh2 were coated onto SPA PVT WGA beads (Amersham). For coating membranes were incubated with beads at typically 25 μg membrane protein per mg beads at 4° C. with constant agitation overnight. (The optimum coating concentrations were determined for each batch of membranes) The beads were pelleted by centrifugation (800×g for 7 minutes at 4° C.), washed once with assay buffer (50 mM HEPES pH 7.4 containing 5 mM magnesium chloride) and finally re-suspended in assay buffer at a bead concentration of 10 mg/ml.
# Each assay contained 20 μl of 6.25 nM [^3H]PGD2, 20 μl membrane saturated SPA beads both in assay buffer and 10 μl of compound solution or 13,14-dihydro-15-keto prostaglandin D2 (DK-PGD2, for determination of non-specific binding, Cayman chemical company).
# Compounds and DK-PGD2 were dissolved in DMSO and diluted in the same solvent to 100× the required final concentration. […] The assay plate was incubated at room temperature for 2 hours and counted on a Wallac Microbeta liquid scintillation counter (1 minute per well).
row,Structure (SMILES),IC50 [nM]
1,"O=C(O)COc1ccc(C(F)(F)F)cc1CN1CCN(C(=O)Cc2cccs2)CC1 [Example 42, [2-[[4-(2-thienylacetyl)-1-piperazinyl]methyl]-4-(trifluoromethyl)phenoxy]-acetic Acid]",132
2,"O=C(O)COc1ccc(C(F)(F)F)cc1CN1CCCN(S(=O)(=O)c2ccc(F)cc2)CC1 [example 7, [2-[[4-[(4-fluorophenyl)sulfonyl]hexahydro-1H-1,4-diazepin-1-yl]methyl]-4-(trifluoromethyl)phenoxy]-acetic acid]",89.1
3,"C[C@H]1CN(Cc2cc(Cl)ccc2OCC(=O)O)CCN1C(=O)Cc1cccc(F)c1 [example 91, [4-chloro-2-[[(3S)-4-[(3-fluorophenyl)acetyl]-3-methyl-1-piperazinyl]methyl]phenoxy]-acetic Acid]",15.8
4,"CC1CN(Cc2cc(Cl)ccc2OCC(=O)O)CCN1S(=O)(=O)c1ccccc1 (stereo not shown) [example 57, [4-Chloro-2-[[3-methyl-4-(phenylsulfonyl)-1-piperazinyl]methyl]phenoxy]acetic Acid]",5.01

# — patent US8524715B2, “Phenoxyacetic acid derivatives useful for treating respiratory diseases” (Astrazeneca AB, priority 2004, dated 2013)
